Measurements reported in patent US6355648B1, “Thio-oxindole derivatives” (American Home Products Corporation, priority 1999, dated 2002).
Values joined by “and” are separate entries in the source; they are usually repeats but may differ in a detail not shown here. Equal values may be shown once.

Tests used:
[1] = tested on: T47D cells; test: T47D cell proliferation assay (BrdU incorporation); assay type: cell-based; conditions: half-maximal increase in BrdU incorporation in T47D cells; individual studies
Protocol: 3. T47D Cell Proliferation Assay
The objective of this assay is the determination of progestational and antiprogestational potency by using a cell proliferation assay in T47D cells. A compound's effect on DNA synthesis in T47D cells is measured.
DMEM:F12 (1:1) (GIBCO, BRL) supplemented with 10% (v/v) fetal bovine serum (not heat-inactivated), 100 U/ml penicillin, […], and 2 mM GlutaMax (GIBCO, BRL).
Minimum Essential Medium (MEM) (#51200-038GIBCO, BRL) phenol red-free supplemented with 0.5% charcoal stripped fetal bovine serum, 100 U/ml penicillin, 200 mg/ml streptomycin, and 2 mM GlutaMax (GIBCO, BRL).
Stock T47 D cells are maintained in growth medium For BrdU incorporation assay, cells are plated in 96-well plates (Falcon, Becton Dickinson Labware) at 10,000 cells/well in growth medium. […]
At the end of BrdU labeling, the medium is removed and BrdU incorporation is measured using a cell proliferation ELISA kit (#RPN 250, Amersham Life Science) according to manufacturer's instructions. […] Then 25 μl of 1 M sulfuric acid is added to each well to stop color reaction and optical density is read in a plate reader at 450 nm within 5 min.
Square root-transformed data are used for analysis of variance and nonlinear dose response curve fitting for both agonist and antagonist modes. […] EC50 or IC50 values are calculated from the retransformed values. […]

[2] = tested on: rat uterine decidualization; test: Rat decidualization assay; assay type: in vivo; conditions: for EC50: half-maximal increase in decidual response (uterine wet weight), ovariectomized rats, s.c., individual studies
Protocol: 1. Rat Decidualization Assay:
The animals are treated once daily for seven days.
Uteri are removed and trimmed of fat. Decidualized (D-hom) and control (C-horn) uterine horns are weighed separately.
Body weight: Mean total animal body weight (default-kg)
Decidual response: [(D-C)/C]×100%

[3] = molecular target: T1, A-form of the human progesterone receptor (Homo sapiens, UniProt P06401); test: hPR binding assay (competitive radioligand binding)
T1 sequence (P06401 1-769 isoform P06401-2): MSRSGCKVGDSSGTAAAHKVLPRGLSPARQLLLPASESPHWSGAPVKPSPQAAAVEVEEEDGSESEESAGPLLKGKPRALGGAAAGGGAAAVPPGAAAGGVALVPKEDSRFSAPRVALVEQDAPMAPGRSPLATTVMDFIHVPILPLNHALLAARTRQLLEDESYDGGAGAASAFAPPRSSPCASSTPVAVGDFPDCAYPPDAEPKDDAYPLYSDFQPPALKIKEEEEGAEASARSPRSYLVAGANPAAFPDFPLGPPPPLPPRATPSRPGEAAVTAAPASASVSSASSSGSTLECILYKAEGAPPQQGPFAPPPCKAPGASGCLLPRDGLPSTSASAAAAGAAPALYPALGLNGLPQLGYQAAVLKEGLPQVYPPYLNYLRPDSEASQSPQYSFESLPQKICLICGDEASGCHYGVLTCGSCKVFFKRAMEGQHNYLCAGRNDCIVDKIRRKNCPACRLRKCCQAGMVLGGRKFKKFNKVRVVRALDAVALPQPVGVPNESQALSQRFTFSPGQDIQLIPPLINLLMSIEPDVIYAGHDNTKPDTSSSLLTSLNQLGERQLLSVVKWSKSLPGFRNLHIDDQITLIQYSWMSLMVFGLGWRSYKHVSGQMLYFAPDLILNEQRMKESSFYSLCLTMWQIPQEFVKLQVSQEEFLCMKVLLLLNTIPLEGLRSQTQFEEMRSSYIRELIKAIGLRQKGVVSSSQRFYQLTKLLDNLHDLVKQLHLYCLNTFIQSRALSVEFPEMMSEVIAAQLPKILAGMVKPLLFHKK

[4] = molecular target: T2, human PR (Homo sapiens, UniProt P06401); test: PRE-luciferase assay in CV-1 cells; assay type: cell-based; conditions: PRE-luciferase agonist mode in CV-1 cells
T2 construct: expressed in transfected cells; host or cells: CV-1 cells, electroporated with pLEM-hPR-B plasmid
T2 sequence (P06401 1-933): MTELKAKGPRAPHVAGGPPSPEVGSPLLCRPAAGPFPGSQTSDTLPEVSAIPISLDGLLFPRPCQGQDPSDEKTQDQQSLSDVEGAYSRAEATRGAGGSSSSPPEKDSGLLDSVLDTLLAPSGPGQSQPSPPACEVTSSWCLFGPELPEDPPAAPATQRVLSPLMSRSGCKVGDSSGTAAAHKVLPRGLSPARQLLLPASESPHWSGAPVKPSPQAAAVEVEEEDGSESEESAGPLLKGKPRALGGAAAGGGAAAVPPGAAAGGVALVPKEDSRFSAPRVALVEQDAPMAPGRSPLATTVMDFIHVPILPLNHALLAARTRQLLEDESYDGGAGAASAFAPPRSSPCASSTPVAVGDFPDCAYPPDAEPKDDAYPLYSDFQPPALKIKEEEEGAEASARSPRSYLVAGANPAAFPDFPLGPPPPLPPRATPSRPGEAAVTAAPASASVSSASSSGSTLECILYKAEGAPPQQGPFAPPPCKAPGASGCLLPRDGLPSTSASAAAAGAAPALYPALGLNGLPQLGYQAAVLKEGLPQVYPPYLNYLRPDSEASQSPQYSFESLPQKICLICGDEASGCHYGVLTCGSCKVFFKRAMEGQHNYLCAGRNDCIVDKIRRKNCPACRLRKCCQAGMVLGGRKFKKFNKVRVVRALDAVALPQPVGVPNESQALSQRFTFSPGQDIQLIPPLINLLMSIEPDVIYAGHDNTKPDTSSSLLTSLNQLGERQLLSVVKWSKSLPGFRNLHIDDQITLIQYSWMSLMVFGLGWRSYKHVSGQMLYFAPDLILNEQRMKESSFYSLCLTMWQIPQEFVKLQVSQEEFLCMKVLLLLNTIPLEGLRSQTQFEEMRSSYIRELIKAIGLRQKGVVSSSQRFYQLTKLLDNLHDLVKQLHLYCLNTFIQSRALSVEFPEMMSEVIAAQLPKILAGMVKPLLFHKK
Protocol: 2. PRE-luciferase Assay in CV-1 Cells
The object of this assay is to determine a compound's progestational or antiprogestational potency based on its effect on PRE-luciferase reporter activity in CV-1 cells co-transfected with human PR and PRE-luciferase plasmids. The materials methods used in the assay are as follows.
a. Growth Medium: DMEM (BioWhittaker) containing 10% (v/v) fetal bovine serum (heat inactivated), 0.1 mM MEM non-essential amino acids, 100 U/ml penicillin, […] streptomycin, and 2 mM GlutaMax (GIBCO, BRL). Experimental medium: DMEM (BioWhittaker), phenol red-free, containing 10% (v/v) charcoal-stripped fetal bovine serum (heat-inactivated), 0.1 mM MEM non-essential amino acids, 100 U/ml penicillin, […] streptomycin, and 2 mM GlutaMax (GIBCO, BRL).
b. Cell Culture, Transfection, Treatment, and Luciferase Assay
Stock CV-1 cells are maintained in growth medium. Co-transfection is done using 1.2×10^7 cells, […] pLEM plasmid with hpR-B inserted at Sph1 and BamH1 sites, […] pGL3 plasmid with two PREs upstream of the luciferase sequence, and […] sonicated calf thymus DNA as carrier DNA in […]. Electroporation is carried out at 260 V and […] in a Biorad Gene Pulser II. After electroporation, cells are resuspended in growth medium and plated in 96-well plate at 40,000 cells/well in 200 μl. Following overnight incubation, the medium is changed to experimental medium. Cells are then treated with reference or test compounds in experimental medium. […] Twenty-four hr. after treatment, the medium is discarded, cells are washed three times with D-PBS (GIBCO, BRL). Fifty μl of cell lysis buffer (Promega, Madison, Wis.) is added to each well and the plates are shaken for 15 min in a Titer Plate Shaker (Lab Line Instrument, Inc.). Luciferase activity is measured using luciferase reagents from Promega.
Each treatment consists of at least 4 replicates. Log transformed data are used for analysis of variance and nonlinear dose response curve fitting for both agonist and antagonist modes. Huber weighting is used to downweight the effects of outliers. EC50 or IC50 values are calculated from the retransformed values.

[5] = tested on: ovulation; test: Rat ovulation inhibition model; assay type: in vivo

Row | SMILES | melting point [°C] | EC50 [2] | EC50 [4] [nM] | also measured
1 | CC1(Cc2ccccc2)C(=S)Nc2ccc(-c3cccc(Cl)c3)cc21 (stereo not shown) [Example 17, 3-Benzyl-5-(3-chlorophenyl)-3-methyl-1,3-dihydro-2H-indole-2-thione] | 168 to 170 | – | – | –
2 | CC(=O)O[C@]1(C(C)=O)CC[C@H]2[C@@H]3C[C@H](C)C4=CC(=O)CC[C@]4(C)[C@H]3CC[C@@]21C [MPA, medroxyprogesterone acetate] | – | 0.42 mg/kg, s.c. and 0.39 mg/kg, s.c. | – | EC50 [1]: 0.017 nM and 0.019 nM
3 | S=C1Nc2ccc(-c3cccc(Cl)c3)cc2C12CCCCC2 [Example 1, 5′-(3-Chlorophenyl)spiro[cyclohexane-1,3′-[3H]indole]-2′(1′H)-thione] | 223 to 227 | – | 0.8 | Ki [3]: 0.2 nM
4 | C[C@H](O)C(=O)[C@@]1(C)CC[C@H]2[C@@H]3CCC4=CC(=O)CCC4=C3CC[C@@]21C [Trimegestone] | – | – | – | EC50 [1]: 0.017 nM and 0.014 nM and 0.019 nM
5 | CC(=O)[C@H]1CC[C@H]2[C@@H]3CCC4=CC(=O)CC[C@]4(C)[C@H]3CC[C@]12C [Progesterone] | – | 5.50 mg/kg, s.c. and 6.21 mg/kg, s.c. | – | –
6 | C#C[C@]1(O)CC[C@H]2[C@@H]3CCC4=CC(=O)CC[C@@H]4[C@H]3C(=C)C[C@@]21CC [3-Ketodesogestrel] | – | 0.10 mg/kg, s.c. and 0.06 mg/kg, s.c. and 0.11 mg/kg, s.c. | – | –
7 | Cc1cc(C(N)=S)sc1-c1ccc2c(c1)C1(CCCCC1)C(=S)N2 [Example 5, 4-Methyl-5-(1,2-dihydro-2-thioxospiro[cyclohexane-1,3-[3H]-indol]-5-yl)-2-thiophene Thioamide] | 244 to 249 | – | 0.3 | –
8 | CC#C[C@]1(O)CC[C@H]2[C@@H]3CCC4=CC(=O)CCC4=C3[C@@H](c3ccc(N(C)C)cc3)C[C@@]21C [RU486] | – | – | – | IC50 ([2]; half-maximal decrease in EC50 progesterone induced decidual response, rats, p.o.): 0.21 mg/kg, p.o. and 0.14 mg/kg, p.o.
9 | C#C[C@]1(O)CC[C@H]2[C@@H]3CCC4=CC(=O)CC[C@@H]4[C@H]3CC[C@@]21CC [Levonorgestrel] | – | 0.08 mg/kg, s.c. and 0.12 mg/kg, s.c. and 0.09 mg/kg, s.c. | – | –
10 | COc1cccc(-c2ccc3c(c2)C(C)(C)C(=S)N3)c1 [Example 19, 5-(3-Methoxyphenyl)-3,3-dimethyl-1,3-dihydro-2H-indole2-thione] | 149 to 150 | – | – | –
11 | CC1(C)C(=S)Nc2ccc(-c3cccc(Cl)c3)cc21 [Example 16, 5-(3-Chlorophenyl)-3,3-dimethyl-1,3-dihydro-2H-indole-2-thione] | 158 to 160 | – | – | –
12 | N#Cc1cc(-c2ccc3c(c2)C2(CCCCC2)C(=S)N3)cs1 [Example 3, 4-(1′, 2′-Dihydro-2′-thioxospiro[cyclohexane-1,3′-[3H]indol]-5′-yl)-2-thiophenecarbonitrile] | 230 to 232 | – | 0.2 | Ki [3]: 0.1 nM
13 | N#Cc1cc(F)cc(-c2ccc3c(c2)C2(CCCCC2)C(=S)N3)c1 [Example 4, 3-(1,2-Dihydro-2-thioxospiro[cyclohexane-1,3-[3H]indol]-5-yl)-5-fluorobenzonitrile] | 236 to 250 | – | 0.1 | Ki [3]: 0.06 nM; Ovulation inhibition IC100 [5]: 0.1 mg/kg
